# Assay results taken from US7250410B2, “Cyclic nucleotide phosphodiesterase inhibitors, preparation and uses thereof” (Via Pharmaceuticals, Inc., priority 2001, dated 2007).
# Tests used:
# TNFα = TNFα production by LPS-activated mononuclear cells from venous blood (ELISA); type: cell-based; conditions: Homo sapiens
# Procedure: Compounds according to the invention were assessed for anti-inflammatory properties on mononuclear cells from venous blood of healthy donors (n=4), by a protocol approved by the Alsace No. 1 Ethics Committee. More specifically, the cells were incubated for 24 hours in 24-well plates in the presence of the test compound, after activation by Salmonella Abortis Equi lipopolysaccharide (LPS) (5 pg/ml) (cf. De Groote et al., Cytokine 4, 1992, 239). After incubation, TNFα concentrations were determined in the culture supernatant by an ELISA method (Antibody Solutions, Half Moon Bay, Calif., USA).
# PDE2 = molecular target: T1, PDE2 (Bos taurus, UniProt P14099); test: Selectivity: inhibition of PDE2, radioenzymatic phosphodiesterase assay; type: biochemical, bovine; conditions: Table 4 Selectivity; compound at 10 μM; read-out: PDE2 percentage inhibition at 10 μM
# T1 construct: PDE2 was prepared from bovine endothelial cells by the same methods; endogenous in cells; host or cells: bovine vascular endothelial cells, DEAE-Sephacel fraction
# T1 sequence (P14099 1-921): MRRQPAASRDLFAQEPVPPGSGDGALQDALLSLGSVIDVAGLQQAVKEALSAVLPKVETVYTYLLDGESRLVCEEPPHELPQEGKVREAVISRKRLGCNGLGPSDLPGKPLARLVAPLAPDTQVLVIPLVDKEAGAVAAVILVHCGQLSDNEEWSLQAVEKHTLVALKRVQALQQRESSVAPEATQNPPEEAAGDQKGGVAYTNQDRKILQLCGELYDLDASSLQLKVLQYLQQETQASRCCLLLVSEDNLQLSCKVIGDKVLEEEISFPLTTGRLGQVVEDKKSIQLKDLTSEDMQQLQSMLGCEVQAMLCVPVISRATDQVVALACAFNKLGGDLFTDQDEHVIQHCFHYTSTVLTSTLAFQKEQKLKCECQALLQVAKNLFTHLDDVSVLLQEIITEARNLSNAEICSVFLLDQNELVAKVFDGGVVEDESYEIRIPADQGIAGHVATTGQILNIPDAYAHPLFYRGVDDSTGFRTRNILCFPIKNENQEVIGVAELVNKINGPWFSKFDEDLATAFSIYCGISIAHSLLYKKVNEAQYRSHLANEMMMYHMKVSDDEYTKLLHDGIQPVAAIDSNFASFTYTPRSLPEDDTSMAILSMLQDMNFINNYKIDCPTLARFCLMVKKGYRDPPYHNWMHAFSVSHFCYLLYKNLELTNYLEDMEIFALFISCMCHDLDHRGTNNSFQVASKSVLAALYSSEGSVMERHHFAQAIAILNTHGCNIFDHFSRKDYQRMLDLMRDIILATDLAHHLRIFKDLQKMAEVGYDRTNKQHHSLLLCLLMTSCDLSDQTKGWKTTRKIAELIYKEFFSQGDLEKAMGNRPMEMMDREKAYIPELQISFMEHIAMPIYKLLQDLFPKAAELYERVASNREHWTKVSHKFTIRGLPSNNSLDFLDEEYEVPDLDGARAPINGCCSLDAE
# Procedure: (§1) A 3 g segment of bovine aortic media cut into pieces with scissors was homogenized with an ultra-turrax then a potter glass/glass homogenizer in 7 volumes by weight of buffer A containing a protease inhibitor cocktail (20 mM Tris-HCl, 0.25 M saccharose, 2 mM magnesium acetate, 1 mM dithiothreitol, 5 mM EGTA, 2000 U/ml aprotinin, 10 mg/l leupeptin and 10 mg/l soya trypsic inhibitor). The homogenizate was centrifuged at 105,000 g for 1 hour. The supernatant was loaded on a DEAE-Sephacel column (15×1.6 cm) pre-equilibrated with buffer B (buffer A without the saccharose, EGTA and protease inhibitors). The column was washed until there was no detectable absorption at 280 nm, then eluted with a linear gradient of NaCl (0–0.5 M) in buffer B. 3-ml fractions were collected and enzyme activity was determined under the conditions described hereinafter to localize the different enzymes PDE1, PDE3, PDE4 and PDE5, which were aliquoted and frozen at −80° C. (Lugnier et al., Biochem. Phamacol., 35 (1986) 1746–1751). PDE2 was prepared from bovine endothelial cells by the same methods (Lugnier and Schini, Biochem. Pharmacol. 1990, 39; 75–84).
# (§2) Cyclic nucleotide phosphodiesterase activity was determined by a radioenzymatic method using tritium-labelled cyclic GMP or AMP (1 μM) as substrate (Lugnier et al., 1986). ^3H-labelled adenosine or guanosine monophosphate formed by hydrolysis of the radiolabelled cyclic nucleotide was then converted to ^3H-labelled adenosine or guanosine in a second reaction with […] in excess. The nucleoside formed was separated from the nucleotides by anion exchange chromatography. Nucleoside radioactivity was determined by liquid scintillation counting. Enzymatic incubations were carried out under conditions allowing no more than 15% hydrolysis of the substrate; each point was performed in duplicate.
# (§3) The activity of the compounds was evaluated on other phosphodiesterase isoforms, particularly basal state or calmodulin-activated PDE1 from vascular smooth muscle, basal state or cyclic GMP-activated PDE2 from vascular endothelial cells, PDE3 and PDE5 from vascular smooth muscle.
# (§4) The results obtained are presented in Table 4 hereinafter and are expressed as the percentage inhibition of enzymatic activity produced by […] of the tested compound.
# PDE1 = test: Selectivity: inhibition of PDE1, radioenzymatic phosphodiesterase assay; type: biochemical, bovine; design: PDE1 percentage inhibition at 10 μM: unit: %; conditions: Table 4 Selectivity; compound at 10 μM
# Procedure: as §1, §2, §3, §4
# IL1β, IL6 and IL8 = IL1β, IL6 and IL8 secretion by LPS-activated mononuclear cells from venous blood; type: cell-based, human
SMILES,IC50 (TNFα; read-out: anti-TNFα activity IC50) [nM],inhibition at 10 µM (PDE2) [%],PDE1 percentage inhibition at 10 μM (PDE1) [%],"inhibition of the secretion of IL1β (IL1β, IL6 and IL8; in words)","inhibition at 1 µM (TNFα; 24 h, read-out: inhibition of TNFα production) [%]","IL1β, IL6 and IL8 secretion levels (IL1β, IL6 and IL8; compound at 1 μM)"
"CCOc1cc2c(cc1OCC)C(c1ccccc1)=NCC(=O)N2 [XXIIag, 7,8-diethoxy-5-phenyl-1,3-dihydro-2H-1,4-benzodiazepin-2-one]",100 to 1000,17,46,capable of inhibiting the secretion,,
"CCOc1cc2c(cc1OC)C(c1ccccc1)=NCC(=O)N2C [IIda, 8-ethoxy-7-methoxy-1-methyl-5-phenyl-1,3-dihydro-2H-1,4-benzodiazepin-2-one]",,7,26,,100,not at all altered
